tested on: Vaccinia virus; assay: Concentration required to reduce vaccinia virus induced cytopathogenicity in rabbit cell kidney culture; format: functional, organism-based; conditions: Orthopoxvirus vaccinia

Going from `Nc1nc(=O)n([C@H]2C[C@H](O)[C@@H](CO)O2)cc1/C=C/Br` to `O=c1[nH]c(=O)n([C@H]2C[C@H](O)[C@@H](CO)O2)cc1/C=C/Br` [BRIVUDINE], the Concentration falls from > 400 µg/mL to 10 µg/mL.

`Cc1cn(C2CC(O)C(CCl)O2)c(=O)nc1-n1cncn1` (centres undefined) and `Cc1cn([C@H]2C[C@H](O)[C@@H](CO)O2)c(=O)nc1-n1cncn1` cannot be ordered by Concentration: > 10 µg/mL for the first, > 40 µg/mL for the second.

First: CC(=O)OC[C@H]1O[C@@H](n2cc(/C=C/Br)c(=O)[nH]c2=O)C[C@@H]1OC(C)=O
Second: CC(=O)OC[C@H]1O[C@@H](n2cc(/C=C/Br)c(-n3cncn3)nc2=O)C[C@@H]1OC(C)=O
The Concentration of the first is 2-fold higher: 40 µg/mL for the first, 20 µg/mL for the second.

Going from `CC(=O)OC[C@H]1O[C@@H](n2cc(C)c(-n3cncn3)nc2=O)C[C@@H]1OC(C)=O` to `O=c1nc(-n2cncn2)c(/C=C/Br)cn1[C@H]1C[C@H](O)[C@@H](CO)O1`, the Concentration falls from > 40 µg/mL to 7 µg/mL.

With `O=c1nc(-n2cncn2)c(/C=C/Br)cn1C1CC(O)C(CCl)O1` (centres undefined) the Concentration was > 100 µg/mL.

— ChEMBL document CHEMBL1123958, “Synthesis and antiviral properties of (E)-5-(2-bromovinyl)-2'-deoxycytidine-related compounds” (J Med Chem, 1988)
